Paper PMC6872167, “An odorant receptor from Anopheles gambiae that demonstrates enantioselectivity to the plant volatile, linalool” (PLoS ONE, 2019)

What was measured:
[1] = target: T1, Odorant receptor 29 (AgamOr29) (Anopheles gambiae, UniProt A0A1S4H074); assay: two-electrode voltage clamp of Xenopus oocytes, concentration-response; assay type: cell-based
T1 construct: coding region, expressed with AgamOrco in Xenopus laevis oocytes; with AgamOrco
T1 sequence (A0A1S4H074 1-384): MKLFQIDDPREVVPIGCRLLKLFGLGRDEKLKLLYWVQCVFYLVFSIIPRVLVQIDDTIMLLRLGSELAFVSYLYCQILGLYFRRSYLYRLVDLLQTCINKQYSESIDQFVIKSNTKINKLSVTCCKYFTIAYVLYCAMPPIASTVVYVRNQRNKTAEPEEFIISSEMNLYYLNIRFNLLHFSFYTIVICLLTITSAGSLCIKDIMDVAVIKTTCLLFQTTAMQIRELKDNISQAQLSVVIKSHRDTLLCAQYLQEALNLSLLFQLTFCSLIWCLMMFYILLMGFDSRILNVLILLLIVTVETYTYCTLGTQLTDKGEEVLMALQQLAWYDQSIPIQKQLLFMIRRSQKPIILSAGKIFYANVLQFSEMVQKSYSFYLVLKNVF
T1 sequence (Q7QCC7 1-478 partner): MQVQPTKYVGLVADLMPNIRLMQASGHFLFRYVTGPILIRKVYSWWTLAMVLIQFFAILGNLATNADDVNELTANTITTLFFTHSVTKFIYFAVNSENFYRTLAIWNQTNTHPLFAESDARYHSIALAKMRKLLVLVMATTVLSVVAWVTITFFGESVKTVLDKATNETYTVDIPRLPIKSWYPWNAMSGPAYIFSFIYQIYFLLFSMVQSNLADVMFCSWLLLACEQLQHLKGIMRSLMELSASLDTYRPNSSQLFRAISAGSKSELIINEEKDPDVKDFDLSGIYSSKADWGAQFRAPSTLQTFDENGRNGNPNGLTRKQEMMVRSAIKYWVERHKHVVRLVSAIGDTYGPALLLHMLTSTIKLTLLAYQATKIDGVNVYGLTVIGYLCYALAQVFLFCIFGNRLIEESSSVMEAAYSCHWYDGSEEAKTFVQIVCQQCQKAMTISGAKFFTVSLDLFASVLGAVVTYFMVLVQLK
Excerpt: two-electrode voltage clamp of Xenopus oocytes, concentration-response on Odorant receptor 29 (AgamOr29) | to (R)-(–)-linalool (left)and (+/–) linalool (right).

[2] = target: T1, Odorant receptor 29 (AgamOr29); assay: two-electrode voltage clamp of Xenopus oocytes, single concentration […]; assay type: cell-based

Row | EC50 [1] [µM] | Compound | two-electrode voltage clamp of Xenopus oocytes, single concentration 10^-4 M [2]
1 | ~5.7 | C=CC(C)(O)CCC=C(C)C (racemic) [(+/–) linalool] | –
2 | ~8 | C=C[C@](C)(O)CCC=C(C)C [(R)-(–)-linalool] | –
3 | – | CCC(C)(O)CCCC(C)C (stereo not drawn) [tetrahydro linalool] | tetrahydro linalool elicited a moderate, but repeatable response from AgamOr29, likely due to its structural similarity to linalool
